Reference: ChEMBL document CHEMBL4613208, “Isatin derivatives and their anti-bacterial activities” (Eur J Med Chem, 2019)
Converted amounts (≈) assume the structure as drawn.

Legend:
Escherichia coli [1] = assay: Antibacterial activity against Escherichia coli assessed as zone of inhibition at 100 ug/ml; format: functional; conditions: for zone of inhibition at 100 µg/mL: read-out: IZ
Pseudomonas aeruginosa [2] = assay: Antibacterial activity against Pseudomonas aeruginosa assessed as zone of inhibition at 100 ug/ml; format: functional; conditions: for zone of inhibition at 100 µg/mL: read-out: IZ
Staphylococcus aureus [3] = assay: Antibacterial activity against Staphylococcus aureus assessed as zone of inhibition at 100 ug/ml; format: functional; conditions: for zone of inhibition at 100 µg/mL: read-out: IZ
Bacillus cereus = assay: Antibacterial activity against Bacillus cereus assessed as zone of inhibition at 100 ug/ml; format: functional; conditions: for zone of inhibition at 100 µg/mL: read-out: IZ
Pseudomonas aeruginosa [4] = assay: Antibacterial activity against Pseudomonas aeruginosa; format: functional, organism-based
Salmonella typhi = assay: Antibacterial activity against Salmonella typhi; format: functional, Salmonella enterica subsp. enterica serovar Typhi; conditions: Salmonella enterica
Staphylococcus aureus [5] = assay: Antibacterial activity against Staphylococcus aureus; format: functional, organism-based
Escherichia coli [6] = assay: Antibacterial activity against Escherichia coli; format: functional, organism-based

Molecule	zone of inhibition at 100 µg/mL (Escherichia coli [1]) [mm]	zone of inhibition at 100 µg/mL (Pseudomonas aeruginosa [2]) [mm]	zone of inhibition at 100 µg/mL (Staphylococcus aureus [3]) [mm]	zone of inhibition at 100 µg/mL (Bacillus cereus) [mm]	MIC (Pseudomonas aeruginosa [4])	MIC (Salmonella typhi) [nM]	further results
O=C(COc1ccc(N2C(=O)CSC2c2ccc(Br)cc2)c2cccnc12)N/N=C1\C(=O)N(CN2CCCCC2)c2ccccc21 (stereo not drawn)	6 to 19	6 to 19	6 to 19	6 to 19			
Cc1nc2ccccc2cc1C(=O)N/N=C1\C(=O)Nc2c1ccc(Cl)c2Cl	6 to 19	6 to 19	6 to 19	6 to 19			
O=C(COc1ccc(N2C(=O)C(Cl)C2c2ccc([N+](=O)[O-])cc2)c2cccnc12)N/N=C1\C(=O)N(CN2CCCCC2)c2ccccc21 (stereo not drawn)	6 to 19	6 to 19	6 to 19	6 to 19			
Cc1nc2ccccc2cc1C(=O)N/N=C1\C(=O)Nc2ccc(F)cc21	6 to 19	6 to 19	6 to 19	6 to 19			
CN1CCN(CN2C(=O)/C(=N\NC(=O)COc3ccc(N4C(=O)C(Cl)C4c4ccccc4)c4cccnc34)c3ccccc32)CC1 (stereo not drawn)	6 to 19	6 to 19	6 to 19	6 to 19			
COc1cccc(NC(=O)CN2C(=O)/C(=N\c3cc(C)ccc3C)c3ccccc32)c1					3 to 15 nM	3 to 15 (≈ 1.24 to 6.2 ng/mL)	
Cc1ccc(C)c(/N=C2\C(=O)N(CC(=O)Nc3ccccc3)c3ccccc32)c1					3 to 324 nM	3 to 324 (≈ 1.15 to 124 ng/mL)	
Cc1ccc(C)c(NC(=O)CN2C(=O)/C(=N\c3ccccc3)c3ccccc32)c1					3 to 324 nM	3 to 324 (≈ 1.15 to 124 ng/mL)	
O=C(COc1ccc(N2C(=O)CSC2c2ccccc2)c2cccnc12)N/N=C1\C(=O)N(CN2CCOCC2)c2ccccc21 (stereo not drawn)	6 to 19	6 to 19	6 to 19	6 to 19			
CN1CCN(CN2C(=O)/C(=N\NC(=O)COc3ccc(N4C(=O)CSC4c4ccccc4)c4cccnc34)c3ccccc32)CC1 (stereo not drawn)	6 to 19	6 to 19	6 to 19	6 to 19			
Cc1nc2ccccc2cc1C(=O)N/N=C1\C(=O)Nc2c(Cl)cccc21	6 to 19	6 to 19	6 to 19	6 to 19			
O=C(COc1ccc(N2C(=O)CSC2c2ccc([N+](=O)[O-])cc2)c2cccnc12)N/N=C1\C(=O)N(CN2CCCCC2)c2ccccc21 (stereo not drawn)	6 to 19	6 to 19	6 to 19	6 to 19			
Cc1ccc(NC(=O)CN2C(=O)/C(=N\c3ccccc3)c3ccccc32)cc1					3 to 324 nM	3 to 324 (≈ 1.11 to 120 ng/mL)	
O=C(COc1ccc(N2C(=O)CSC2c2ccc(Cl)cc2)c2cccnc12)N/N=C1\C(=O)N(CN2CCCCC2)c2ccccc21 (stereo not drawn)	6 to 19	6 to 19	6 to 19	6 to 19			
COc1cccc(NC(=O)CN2C(=O)/C(=N\c3ccccc3)c3ccccc32)c1					3 to 324 nM	3 to 324 (≈ 1.16 to 125 ng/mL)	
Cc1nc2ccccc2cc1C(=O)N/N=C1\C(=O)Nc2cccc(Cl)c21	6 to 19	6 to 19	6 to 19	6 to 19			
Cc1ccc(NC(=O)CN2C(=O)/C(=N\c3cc(C)ccc3C)c3ccccc32)cc1					3 to 324 nM	3 to 324 (≈ 1.19 to 129 ng/mL)	
Cc1c(C)c2c(c(C)c1O)CCC(C)(C(=O)N/N=C1\C(=O)N(C)c3ccc(Cl)cc31)O2 (stereo not drawn)					12.5 to 100 µg/mL		MIC (Staphylococcus aureus [5]): 12.5 to 100 µg/mL (≈ 28.3 to 226 µM); MIC (Escherichia coli [6]): 12.5 to 100 µg/mL (≈ 28.3 to 226 µM)
Cc1nc2ccccc2cc1C(=O)N/N=C1\C(=O)Nc2ccc(Cl)c(Cl)c21	6 to 19	6 to 19	6 to 19	6 to 19			
Cc1c(C)c2c(c(C)c1O)CCC(C)(C(=O)N/N=C1\C(=O)Nc3ccc(Cl)cc31)O2 (stereo not drawn)					12.5 to 100 µg/mL		MIC (Staphylococcus aureus [5]): 12.5 to 100 µg/mL (≈ 29.2 to 234 µM); MIC (Escherichia coli [6]): 12.5 to 100 µg/mL (≈ 29.2 to 234 µM)
O=C(CN1C(=O)/C(=N\c2ccccc2)c2ccccc21)Nc1ccccc1					3 to 324 nM	3 to 324 (≈ 1.07 to 115 ng/mL)	
O=C(COc1ccc(N2C(=O)C(Cl)C2c2ccccc2)c2cccnc12)N/N=C1\C(=O)N(CN2CCCCC2)c2ccccc21 (stereo not drawn)	6 to 19	6 to 19	6 to 19	6 to 19			
COc1ccc(NC(=O)CN2C(=O)/C(=N\c3cc(C)ccc3C)c3ccccc32)cc1					3 to 324 nM	3 to 324 (≈ 1.24 to 134 ng/mL)	
Cc1ccc(C)c(/N=C2\C(=O)N(CC(=O)Nc3cc(C)ccc3C)c3ccccc32)c1					3 to 324 nM	3 to 324 (≈ 1.23 to 133 ng/mL)	
O=C1Nc2ccccc2/C1=N/NC(=O)c1cccc(Br)c1							IC50 (Staphylococcus aureus [5]): 30 to 50 µM; IC50 (Escherichia coli [6]): 30 to 50 µM; IC50 (Pseudomonas aeruginosa [4]): 30 to 50 µM

Molecule	zone of inhibition at 100 µg/mL (Escherichia coli [1]) [mm]	zone of inhibition at 100 µg/mL (Pseudomonas aeruginosa [2]) [mm]	zone of inhibition at 100 µg/mL (Staphylococcus aureus [3]) [mm]	zone of inhibition at 100 µg/mL (Bacillus cereus) [mm]	MIC (Pseudomonas aeruginosa [4])	MIC (Salmonella typhi) [nM]	further results
O=C(COc1ccc(N2C(=O)C(Cl)C2c2ccc(Br)cc2)c2cccnc12)N/N=C1\C(=O)N(CN2CCCCC2)c2ccccc21 (stereo not drawn)	6 to 19	6 to 19	6 to 19	6 to 19			
GENTAMICIN							inhibition zone (IZ) (Escherichia coli [1]): 19 to 27 mm; inhibition zone (IZ) (Pseudomonas aeruginosa [2]): 19 to 27 mm; inhibition zone (IZ) (Staphylococcus aureus [3]): 19 to 27 mm; inhibition zone (IZ) (Bacillus cereus): 19 to 27 mm
Cc1nc2ccccc2cc1C(=O)N/N=C1\C(=O)Nc2c(Br)ccc(Br)c21	6 to 19	6 to 19	6 to 19	6 to 19			
Cc1c(C)c2c(c(C)c1O)CCC(C)(C(=O)N/N=C1\C(=O)Nc3ccc(Br)cc31)O2 (stereo not drawn)					12.5 to 100 µg/mL		MIC (Staphylococcus aureus [5]): 12.5 to 100 µg/mL (≈ 26.5 to 212 µM); MIC (Escherichia coli [6]): 12.5 to 100 µg/mL (≈ 26.5 to 212 µM)
CC1(C)S[C@@H]2[C@H](NC(=O)Cc3ccccc3)C(=O)N2[C@H]1C(=O)O [PENICILLIN G]							IC50 (Staphylococcus aureus [5]): 631 µM; IC50 (Escherichia coli [6]): 631 µM; IC50 (Pseudomonas aeruginosa [4]): 631 µM
O=C(COc1ccc(N2C(=O)C(Cl)C2c2ccccc2)c2cccnc12)N/N=C1\C(=O)N(CN2CCOCC2)c2ccccc21 (stereo not drawn)	6 to 19	6 to 19	6 to 19	6 to 19			
Cc1ccc(NC(=O)CN2C(=O)/C(=N\c3ccccc3)c3ccccc32)cc1C					3 to 324 nM	3 to 324 (≈ 1.15 to 124 ng/mL)	
Cc1nc2ccccc2cc1C(=O)N/N=C1\C(=O)Nc2cc(Cl)cc(Cl)c21	6 to 19	6 to 19	6 to 19	6 to 19			
Cc1ccc(C)c(/N=C2\C(=O)N(CC(=O)Nc3ccc(C)c(C)c3)c3ccccc32)c1					3 to 324 nM	3 to 324 (≈ 1.23 to 133 ng/mL)	
COc1ccc(C2SCC(=O)N2c2ccc(OCC(=O)N/N=C3\C(=O)N(CN4CCCCC4)c4ccccc43)c3ncccc23)cc1 (stereo not drawn)	6 to 19	6 to 19	6 to 19	6 to 19			
COc1ccc(NC(=O)CN2C(=O)/C(=N\c3ccccc3)c3ccccc32)cc1					3 to 324 nM	3 to 324 (≈ 1.16 to 125 ng/mL)	
Cc1nc2ccccc2cc1C(=O)N/N=C1\C(=O)Nc2ccccc21	6 to 19	6 to 19	6 to 19	6 to 19			
Cc1ccc(C)c(/N=C2\C(=O)N(CC(=O)Nc3ccccc3C)c3ccccc32)c1					3 to 324 nM	3 to 324 (≈ 1.19 to 129 ng/mL)	
Cc1ccccc1NC(=O)CN1C(=O)/C(=N\c2ccccc2)c2ccccc21					3 to 324 nM	3 to 324 (≈ 1.11 to 120 ng/mL)	
COc1ccc(C2C(Cl)C(=O)N2c2ccc(OCC(=O)N/N=C3\C(=O)N(CN4CCCCC4)c4ccccc43)c3ncccc23)cc1 (stereo not drawn)	6 to 19	6 to 19	6 to 19	6 to 19			
O=C(COc1ccc(N2C(=O)C(Cl)C2c2ccc(Cl)cc2)c2cccnc12)N/N=C1\C(=O)N(CN2CCCCC2)c2ccccc21 (stereo not drawn)	6 to 19	6 to 19	6 to 19	6 to 19			
Cc1ccc(NC(=O)CN2C(=O)/C(=N\c3cc(C)ccc3C)c3ccccc32)c(C)c1					3 to 15 nM	3 to 15 (≈ 1.23 to 6.17 ng/mL)	
Cc1nc2ccccc2cc1C(=O)N/N=C1\C(=O)Nc2ccc(F)c(Cl)c21	6 to 19	6 to 19	6 to 19	6 to 19			
Cc1ccc(C2SCC(=O)N2c2ccc(OCC(=O)N/N=C3\C(=O)N(CN4CCCCC4)c4ccccc43)c3ncccc23)cc1 (stereo not drawn)	6 to 19	6 to 19	6 to 19	6 to 19			
O=C(COc1ccc(N2C(=O)CSC2c2ccccc2)c2cccnc12)N/N=C1\C(=O)N(CN2CCCCC2)c2ccccc21 (stereo not drawn)	6 to 19	6 to 19	6 to 19	6 to 19			
Cc1ccc(NC(=O)CN2C(=O)/C(=N\c3ccccc3)c3ccccc32)c(C)c1					3 to 324 nM	3 to 324 (≈ 1.15 to 124 ng/mL)	
Cc1nc2ccccc2cc1C(=O)N/N=C1\C(=O)Nc2c(Br)cccc21	6 to 19	6 to 19	6 to 19	6 to 19			
Cc1nc2ccccc2cc1C(=O)N/N=C1\C(=O)Nc2ccc([N+](=O)[O-])cc21	6 to 19	6 to 19	6 to 19	6 to 19			
Cc1nc2ccccc2cc1C(=O)N/N=C1\C(=O)Nc2c(Br)cc(Br)cc21	6 to 19	6 to 19	6 to 19	6 to 19			
Cc1ccc(C2C(Cl)C(=O)N2c2ccc(OCC(=O)N/N=C3\C(=O)N(CN4CCCCC4)c4ccccc43)c3ncccc23)cc1 (stereo not drawn)	6 to 19	6 to 19	6 to 19	6 to 19			
